Experiments:
progesterone receptor = progesterone receptor (Homo sapiens, UniProt P06401); conditions: cited from earlier work
[1] = test system: advanced or metastatic solid tumors; assay: Tumor assessments per RECIST 1.1 in study NCT02762981; format: in vivo, human; conditions: of 21 patients with paired samples; relacorilant plus nab-paclitaxel
Procedure: In the following, reference is made to RECIST and RECIST 1.1, which refer to the Response Evaluation Criteria for Solid Tumors. These criteria, first promulgated in 2000, and updated in 2009 (as RECIST 1.1.), are generally accepted, and nearly universally used criteria for clinical trials of therapies for solid tumors. See, e.g., Schwartz et al., Eur J Cancer. July; 62: 132-137 (2016). The study described in this Example was performed and evaluated according to these criteria. Detection of the ovarian cancer marker CA-125 was also used, per Gynecologic Cancer Intergroup (GCIG) criteria, in evaluating the patient samples.
Patients Patients with solid tumors were enrolled in study NCT02762981, a phase 1/2 study of CORT125134 (aka relacorilant) in combination with nab-paclitaxel. The patients were all 18 years of age or older, with advanced or metastatic solid tumors who have disease progression; all patients gave informed consent to participate in this study.
Patients received one or more cycles of treatments as describe schematically in FIGS. 1 and 2. The treatment schedules of each 28-day cycle are shown in those figures. Patients in Segment I of the study received continuous dosing of relacorilant (“CORT125134”); that is, relacorilant was administered to the patients on a daily basis. […]

[2] = test system: OVCAR-5 human ovarian cancer cells; assay: OVCAR-5 cell growth (Cell Titer-Glo) with chemotherapy agents with or without dexamethasone and relacorilant; format: cell-based
Procedure: The initial cell density was chosen to be low enough to allow for several population doublings (typically 3 to 5) during the indicated incubation period. […] After 48 hours of incubation, serially diluted test agents in growth medium were added to each well. After 72 hours of culture, the plated cells and Cell Titer-Glo® (Promega G7571) reagents were brought to room temperature to equilibrate for 30 minutes. 200 μL of Cell Titer-Glo® reagent was then added to each well, the plate was shaken for two minutes, and then left to equilibrate for ten minutes. The Cell Titer-Glo® cell viability assay uses ATP levels to determine cell numbers. After this equilibration, luminescence was read on the Biotech Synergy II microplate reader. The percent control (% C) of cell growth for each test concentration was calculated relative to untreated wells. All tests were performed in quadruplicate. Individual assay plates were evaluated for appropriate signal and well-to-well variance in the control wells for quality control.

[3] = OVCAR-5, glucocorticoid 100 nM dexamethasone, relacorilant in the presence of the glucocorticoid

progesterone receptor, sequence (P06401 whole entry, species assumed): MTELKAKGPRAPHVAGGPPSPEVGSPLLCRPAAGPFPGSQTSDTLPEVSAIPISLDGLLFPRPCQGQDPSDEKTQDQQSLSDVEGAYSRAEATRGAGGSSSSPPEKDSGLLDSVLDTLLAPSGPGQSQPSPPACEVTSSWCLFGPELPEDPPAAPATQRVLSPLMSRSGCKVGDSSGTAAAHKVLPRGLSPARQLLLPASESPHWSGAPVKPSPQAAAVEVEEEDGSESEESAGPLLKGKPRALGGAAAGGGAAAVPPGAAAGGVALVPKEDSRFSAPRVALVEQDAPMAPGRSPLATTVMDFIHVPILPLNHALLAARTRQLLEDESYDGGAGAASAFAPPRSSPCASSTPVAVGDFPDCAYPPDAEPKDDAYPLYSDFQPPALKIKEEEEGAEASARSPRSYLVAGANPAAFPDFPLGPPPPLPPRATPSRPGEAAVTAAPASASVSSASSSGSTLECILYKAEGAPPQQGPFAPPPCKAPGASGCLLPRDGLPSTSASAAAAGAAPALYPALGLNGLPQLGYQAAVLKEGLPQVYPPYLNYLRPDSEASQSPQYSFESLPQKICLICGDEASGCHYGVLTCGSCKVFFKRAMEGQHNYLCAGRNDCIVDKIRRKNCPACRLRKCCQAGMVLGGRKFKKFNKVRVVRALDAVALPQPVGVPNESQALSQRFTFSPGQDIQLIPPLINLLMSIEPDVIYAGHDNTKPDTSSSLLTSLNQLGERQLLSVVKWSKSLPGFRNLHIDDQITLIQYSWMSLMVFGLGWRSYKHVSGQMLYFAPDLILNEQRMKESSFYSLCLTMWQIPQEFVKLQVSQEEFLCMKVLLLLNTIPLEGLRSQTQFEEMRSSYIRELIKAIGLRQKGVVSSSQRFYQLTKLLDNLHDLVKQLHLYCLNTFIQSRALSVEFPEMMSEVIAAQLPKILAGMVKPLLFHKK

For `Cn1cc(S(=O)(=O)N2CCC3=Cc4c(cnn4-c4ccc(F)cc4)C[C@]3(C(=O)c3cc(C(F)(F)F)ccn3)C2)cn1` [relacorilant, (R)-(1-(4-fluorophenyl)-6-((1-methyl-1H-pyrazol-4-yl)sulfonyl)-4,4a,5,6,7,8-hexahydro-1H-pyrazolo[3,4-g]isoquinolin-4a-yl)(4-(trifluoromethyl)pyridin-2-yl)methanone], the Ki (progesterone receptor) is given as > 10 µM, the “patients who experienced benefit from therapy (SD, PR or CR)” value [1] is given as 11 patients and the “patients who experienced progressive disease” value [1] is given as 10 patients. The “cell numbers (luminosity) in the presence of bortezumib and palbociclib” value ([2]; OVCAR-5, bortezumib 500 μM, palbociclib 100 μM, 100 nM dexamethasone, 300 nM relacorilant) was “opposed”, the “maximal toxicity at high chemotherapy concentrations” value ([2]; OVCAR-5, dexamethasone, relacorilant + dexamethasone) was “reversed this” and the “half-maximal potency of / sensitivity to oxaliplatin” value [2, 3] was “restored sensitivity to oxaliplatin”. The “maximum effect of / sensitivity to gemcitabine” value [2, 3] was “restored sensitivity to gemcitabine”, the “maximum effect of / sensitivity to paclitaxel” value [2, 3] was “restored sensitivity to paclitaxel” and the “effects of dexamethasone on response to chemotherapeutic agents” value ([2]; OVCAR-5, several chemotherapeutic agents) was “reversed the effects of dexamethasone in all cases”. For the same molecule, the potency of carboplatin ([2]; OVCAR-5 grown with 100 nM dexamethasone, carboplatin titrated against increasing amounts of relacorilant) was “dose-dependently increased”.

— patent US11234971B2, “Methods of treating cancer comprising administration of a glucocorticoid receptor modulator and a cancer chemotherapy agent” (Corcept Therapeutics Incorporated, priority 2018, dated 2022)
